Test results reported in patent US9427458B2, “Methods for inhibiting cancer cell proliferation” (Consejo Nacional de Investigaciones Cientificas y Tecnicas, …, priority 2010, dated 2016).

Experiments:
[1] = system: cyclin D1 promoter; experiment: Human cyclin D1 promoter luciferase reporter in T47D cells; type: cell-based; conditions: pretreatment or cotransfection, MPA 24 h
Description: (§1) The luciferase reporter plasmid downstream the cyclin D1 human promoter region (−1745 cyclin D1-luc), and constructs truncated at positions −963, −261, −141, were kindly provided by Dr. R. Pestell (Northwestern University Medical School, Chicago, Ill.). These constructs were generated by truncation of the 1745-bp length promoter in order to sequentially exclude 5′ regions of the promoter. The −963 cyclin D1-luc construct excludes one GAS site (−984), the −261 cyclin D1-luc excludes three GAS sites (−984, −568 and −475) and the −141 cyclin D1-luc excludes four GAS sites (−984, −568, −475 and −239). The empty vector pA3 Luc was also provided by Dr. R. Pestell. The luciferase reporter plasmid containing four copies of the m67 high-affinity binding site (p4×m67-tk-luc) and the pTATA-tk-Luc reporter lacking the m67 insertion were a gift from Dr J. Darnell (The Rockefeller University, New York, N.Y.). The Renilla luciferase expression plasmid RLCMV was obtained from Promega (Madison, Wis.). […] Triplicate samples were analyzed for each datum point. Differences between experimental groups were analyzed by ANOVA followed by Tukey test between groups.

[2] = system: cyclin D1 promoter; experiment: Human cyclin D1 promoter luciferase reporter in C4HD cells; type: cell-based, mouse; conditions: for MPA-induced cyclin D1 promoter activation: pretreatment or cotransfection, MPA 24 h
Description: The luciferase reporter plasmid downstream the cyclin D1 human promoter region (−1745 cyclin D1-luc), and constructs truncated at positions −963, −261, −141, were kindly provided by Dr. R. Pestell (Northwestern University Medical School, Chicago, Ill.). These constructs were generated by truncation of the 1745-bp length promoter in order to sequentially exclude 5′ regions of the promoter. The −963 cyclin D1-luc construct excludes one GAS site (−984), the −261 cyclin D1-luc excludes three GAS sites (−984, −568 and −475) and the −141 cyclin D1-luc excludes four GAS sites (−984, −568, −475 and −239). The empty vector pA3 Luc was also provided by Dr. R. Pestell. The luciferase reporter plasmid containing four copies of the m67 high-affinity binding site (p4×m67-tk-luc) and the pTATA-tk-Luc reporter lacking the m67 insertion were a gift from Dr J. Darnell (The Rockefeller University, New York, N.Y.). The Renilla luciferase expression plasmid RLCMV was obtained from Promega (Madison, Wis.). Dominant negative Stat3 expression vector, Stat3Y705-F, which carries a tyrosine to phenylalanine substitution at codon 705 that reduces phosphorylation on tyrosine of the wild-type Stat3 protein, therefore inhibiting both dimerization and DNA binding of Stat3 (6,7,16) was kindly provided by Dr J. Darnell (New York, USA). The empty pcDNA3.1 vector was also a gift of Dr J. Darnell. Human wild-type ErbB-2 expression vector (hErbB-2WT) as well as the empty pMe18SM vector were a gift from by Dr. T. Yamamoto (University of Tokyo, Japan) (1). The GFP-tagged human ErbB-2 mutant which lacks the putative nuclear localization signal sequence (aa 676-KRRQQKIRKYTMRR-689) (SEQ ID NO:3), resulting in the sequence of KLM at the deletion junction (hErbB-2ΔNLS), was generously provided by Dr. M. C. Hung (The University of Texas M.D. Anderson Cancer Center, Houston, Tex.) (Giri et al., 2005). The empty pEGFP-N1 vector was obtained from BD Biosciences Clontech (Palo Alto, Calif.). The plasmid encoding the human wild-type hPR-B was kindly provided by Dr. K. Horwitz. In experiments assessing MPA capacity to induce the transcriptional activation of Stat3, C4HD and T47D cells were transiently transfected for 48 h with 1 μg of −1745 cyclin D1-luc reporter plasmid or the truncated −963, −261 and −141 constructs, or with 1 μg p4×m67-tk-luc and 10 ng of RL-CMV used to correct variations in transfection efficiency. As control, cells were transfected with 1 μg of either the pA3 Luc or pTATA-tk-Luc reporters. Cells were cotransfected with 2 μg of Stat3Y705-F when indicated. Total amount of transfected DNA was standardized by adding the empty pcDNA3.1 vector. […] Triplicate samples were analyzed for each datum point. Differences between experimental groups were analyzed by ANOVA followed by Tukey test between groups.

[3] = system: Stat3; experiment: m67 Stat3 binding site luciferase reporter in C4HD cells; type: cell-based, mouse; conditions: cotransfection
Description: as §1

[4] = system: Stat3; experiment: Stat3 phosphorylation and nuclear translocation in C4HD cells; type: cell-based, mouse; conditions: Transfected C4HD cells versus wild-type C4HD cells also stimulated with MPA
Description: Lysates were prepared from cells subjected to the different treatments and proteins were subjected to SDS-PAGE as previously described (21). Membranes were immunoblotted with the antibodies detailed in each experiment. When phospho(p)-protein antibodies were used, filters were reprobed with total protein antibodies. Signal intensities of pErbB-2, pStat3, pSrc, pPR, pJak1, and pJak2 bands were analyzed by densitometry and normalized to total protein bands. Similarly, signal intensities of PR, cyclin D1, Stat3, and ErbB-2 bands were normalized to actin or β tubulin bands. […] The NEPER Nuclear and Cytoplasmic Extraction Reagents technique (Pierce Biotechnology) was performed as per manufacturer's instructions. Nuclear association between ErbB-2 and Stat3 was studied by performing coimmunoprecipitation experiments using 200 μg of nuclear protein lysates as described (22).
siRNAs targeting ErbB-2, Stat3, and Pr were synthesized by Dharmacon, Inc (Lafayatte, Colo.) (ErbB-2siRNA: 5′GAUGGUGCUUACUCAUUGA3′ (SEQ ID NO:8), designed to specifically knockdown mouse ErbB2 but not human ErbB-2; Stat3siRNA: 5′[…]3′ (SEQ ID NO:9) targets mouse Stat3; and 5′[…]3′ (SEQ ID NO:10) targets human Stat3; PRsiRNA: 5′[…]3′(SEQ ID NO:11)). […] Transfection of siRNAs duplexes was performed by using the DharmaFECT transfection reagent following the manufacturer's direction for 3 days. For reconstitution experiments cotransfection of 25 nM ErbB-2 siRNA with 2 μg expression vectors was performed using DharmaFECT Duo transfection reagent (Dharmacon).
Cells grown on glass coverslips were fixed and permeabilized in ice-cold methanol and were then blocked with PBS 1% BSA. ErbB-2 was localized using either a rabbit polyclonal (C-18) or a mouse monoclonal (F-11) ErbB-2 antibody (Santa Cruz Biotechnology) and Stat3 was detected using a mouse monoclonal antibody (124H6, Cell Signaling), followed by incubation with a goat anti-rabbit IgG-Alexa 488 (Molecular Probes, Eugene, Oreg.) secondary antibody for ErbB-2 (C-18) and with a rhodamine conjugated goat anti-mouse secondary antibody (Jackson ImmunoResearch Laboratories, West Grove, Pa.) for both ErbB2 (F-11) and Stat3. Negative controls were carried out using PBS instead of primary antibodies, or 5× competitive peptide (Santa Cruz Biotechnology) when ErbB-2 (C-18) was used. When cells were transfected with hErbB-2ΔNLS, green fluorescent protein from this expression vector was visualized by direct fluorescence imaging. […] FIGS. 2A, 3B and C, illustrate a few cells representative of the ones examined. Cells were analyzed using a Nikon Eclipse E800 confocal laser microscopy system (22).

[5] = system: Stat3; experiment: m67 Stat3 binding site luciferase reporter in T47D cells; type: cell-based, human; conditions: cotransfection
Description: as §1

| Substance | MPA-induced cyclin D1 promoter activation [1] | MPA-induced cyclin D1 promoter activation [2] | basal levels of Stat3 transcriptional activity ([2]; absence of MPA) | MPA-induced Stat3 transcriptional activation (m67 reporter) [3] | Stat3 Tyr705 phosphorylation upon MPA stimulation [4] | MPA-induced Stat3 transcriptional activation (m67 reporter) [5] |
| --- | --- | --- | --- | --- | --- | --- |
| Stat3Y705-F: Dominant negative Stat3 expression vector, tyrosine to phenylalanine substitution at codon 705 | absolutely inhibited | absolutely inhibited | – | – | – | – |
| hErbB-2WT: Human wild-type ErbB-2 expression vector | – | significantly enhanced | did not modulate | significantly enhanced | higher levels | significantly enhanced |
